Structures are written as SMILES.

Results on 10 molecules are retold here after the SangsterLogP compilation.

One may read the logP as the decadic logarithm of the partition coefficient of the neutral form, usually between octanol and water. Read a high logP as a more lipophilic compound. In turn, `CCN1CCCC1CNC(=O)c1cc(Br)cc(OC)c1OC` (stereo in doubt) came in with a logP of 2.37.
For the molecule `CNCC(O)CCN1c2ccccc2N(c2ccccc2)S1(=O)=O` (stereo not given), the logP was 2.55.
Take `CCC(C)NC(=O)c1cc2ccccc2c(-c2ccccc2Cl)n1` (stereo not given): the logP came to 3.25.
`CCCn1c(=O)c2[nH]c(C3CCCC3)nc2n(CCCF)c1=O` showed a logP of 2.83.
Molecule `COc1cc2c(cc1OC)CN(CCc1ccc(NC(=O)c3cccc4c(=O)c5cccc(OC)c5[nH]c34)cc1)CC2` registered a logP of 4.82.
Turning to `CN1Cc2c(C(=O)OCCF)ncn2-c2ccc(F)cc2C1=O`, the logP was 0.93.
The result for `Oc1ccccc1OC(c1ccccc1)C1CNCCO1` (stereo not given) reads 1.92; that for `COC(=O)C1C(c2ccc(I)cc2)CC2CCC1N2C` (stereo not given), 2.13; that for `CCN1CCC[C@H]1CNC(=O)c1cc(I)cc(OC)c1OC`, 2.73.
The molecule `Cn1c2c(c3ccccc31)C[C@@]1(O)[C@@H]3Cc4ccc(O)c5c4[C@@]1(CCN3CC1CC1)[C@H]2O5` returned a logP of 4.28.
